According to patent US9023758B2, “Methods for promoting plant health” (University of Delaware, priority 2009, dated 2015):

Key:
free SA = free SA levels in Arabidopsis leaves; conditions: compared to control untreated plants
DC3000 = test: acetoin treatment of Arabidopsis plants leaf inoculated with DC3000
PR1::GUS = PR1::GUS reporter expression in Arabidopsis
[1] = tested on: PDF1.2 and PR1 transcripts; test: RT-PCR of defense genes PDF1.2 and PR1; type: in vivo, Arabidopsis thaliana; conditions: leaves, compared to mock inoculated plants
Text: To further confirm that a FB17 component, acetoin, mediates this response we analyzed the defense genes PDF1.2 and Jin1 whose expression depends on functional ET and JA pathways.

B. subtilis strain FB17 = test: capillary chemotaxis assay; type: cell-based, Bacillus subtilis
Protocol: (§1) To evaluate MA's ability to selectively recruit FB17, microbial motility at varying MA doses was measured by capillary chemotaxis assay (Gordillo et al., 2007). […] The concentration range of 5 to 30 μM falls within the biological titers of MA secreted in planta through the root exudates. […] To establish whether L-MA specifically chemoattracts FB17, other beneficial bacteria, such as Pseudomonas fluorescens strain Pf01 and Azospirillum brasilense strain Cd, and pathogenic bacteria, such as Pst DC3000, Erwinia carotovora strain AH2, Agrobacterium rhizogenes strain Arqua-1, and Agrobacterium tumefaciens strain LBA4404, were assayed for MA. […] Bacterial strains used in the chemotactic assay included B. subtilis strain FB17, A. tumefaciens strain LBA4404, E. carotovora strain AH2, A. rhizogenes strain Arqua-1, A. brasilense strain Cd, P. fluorescens (Pf01), and P. syringae (Pst DC3000). Data are the average of six replicates from two experiments conducted separately.

yqxM operon = type: cell-based, B. subtilis strain Marburg
[2] = tested on: Erwinia carotovora strain AH2; test: capillary chemotaxis assay; type: cell-based
Protocol: as §1

[3] = tested on: Pseudomonas fluorescens strain Pf01; test: capillary chemotaxis assay; type: cell-based
Protocol: as §1

[4] = tested on: Agrobacterium rhizogenes strain Arqua-1; test: capillary chemotaxis assay; type: cell-based
Protocol: as §1

[5] = tested on: Agrobacterium tumefaciens strain LBA4404; test: capillary chemotaxis assay; type: cell-based
Protocol: as §1

[6] = tested on: Azospirillum brasilense strain Cd; test: capillary chemotaxis assay; type: cell-based
Protocol: as §1

Pst DC3000 = test: capillary chemotaxis assay; type: cell-based, Pseudomonas syringae pv tomato
Protocol: as §1

CC(=O)C(C)O (stereo not drawn) [acetoin, 3-hydroxy-2-butanone]
free SA levels (free SA): enhances the total free SA level | percent disease incidence (DC3000; Arabidopsis, ratio of leaves with symptoms to leaves inoculated, vs untreated): significantly lower | disease symptoms (DC3000; Arabidopsis, volatile treatment, 5 days post-infection, compared to untreated controls): significantly lower disease symptoms | DC3000 CFUs from leaves (DC3000; Arabidopsis, vs untreated, P<0.05): lower DC3000 CFUs | protection from DC3000 infection (DC3000; SA deficient NahG plants): failed to protect | protection from DC3000 infection (DC3000; ethylene mutant etr1-3 plants): failed to protect | DC3000 multiplication in terms of CFUs (DC3000; jasmonic acid mutant Jar1-1): significantly reduction in DC3000 multiplication | DC3000 multiplication in terms of CFUs (DC3000; wild type Col-0): significantly reduction in DC3000 multiplication | PR1::GUS expression (PR1::GUS; treated or root inoculated plants compared to untreated plants): enhanced PR1 expression | PDF1.2 transcripts [1]: more | PR1 transcripts [1]: more

O=C(O)C(=O)O [oxalic acid, reference compound]
chemotactic efficacy compared to the natural L-MA form (B. subtilis strain FB17; 30 μM): lower efficacies | expression of biofilm operon yqxM (β-galactosidase activity) (yqxM operon): did not stimulate β-galactosidase activity

O=C(O)c1ccccc1O [SA]
PR1 expression (PR1::GUS; leaves sprayed): higher PR1 expression | PR1 expression (PR1::GUS; root treated plants): much less PR1 expression

O=C(O)C[C@H](O)C(=O)O [L-MA, L-malic acid]
motility toward L-MA compared to FB17 [2]: none of the bacteria shows any significant motility | motility toward L-MA compared to FB17 [3]: none of the bacteria shows any significant motility | motility toward L-MA compared to FB17 [4]: none of the bacteria shows any significant motility | motility toward L-MA compared to FB17 [5]: none of the bacteria shows any significant motility | motility toward L-MA compared to FB17 [6]: none of the bacteria shows any significant motility | motility toward L-MA compared to FB17 (Pst DC3000): none of the bacteria shows any significant motility | chemotactic behavior of FB17 (B. subtilis strain FB17; dose range of 5 to 30 μM): positive chemotactic behavior in a concentration-dependent manner | expression of biofilm operon yqxM (β-galactosidase activity) (yqxM operon): elevated expression | β-galactosidase activity level and kinetics compared to root exudates (yqxM operon): activity level was lower and the kinetics response was abbreviated

O=C(O)C[C@@H](O)C(=O)O [D-MA]
chemotactic efficacy compared to the natural L-MA form (B. subtilis strain FB17; 30 μM): lower efficacies | chemotaxis compared to water control (B. subtilis strain FB17; 30 μM): significantly higher than the water control | expression of biofilm operon yqxM (β-galactosidase activity) (yqxM operon): did not stimulate β-galactosidase activity
